Literature values, collected in patent publication US20240238347A1, “PHOTORECEPTOR CELLS FOR RETINAL AND MACULAR REPAIR” (The Johns Hopkins University, priority 2021, published 2024).
Where two headings read alike, the source gives them in different places.

Legend:
Thrβ mutant organoids = conditions: Thrβ KO+T3; early T3 addition
[1] = test system: ESC- and iPSC-derived organoids
[2] = test system: WERI-Rb1 retinoblastoma cells; conditions: retinoblastoma cell line treated with T3
[3] = 'Early RA': 1.0 μM RA from days 43 to 130
[4] = 'Late RA': 1.0 μM RA from days 130 to 200
[5] = wild type+T3, 20 nM T3 starting from days 20 to 50 until day 200 of differentiation

SMILES | L cones at day 200 (human retinal organoids; [3]) [%] | M cones at day 200 (human retinal organoids; [3]) [%] | co-expressing cones at day 200 (human retinal organoids; [3]) [%] | L cones at day 200 (human retinal organoids; [4]) [%] | M cones at day 200 (human retinal organoids; [4]) [%] | co-expressing cones at day 200 (human retinal organoids; [4]) [%] | M-opsin and L-opsin expression (RNA-seq) (human retinal organoids; ESC-derived organoids grown in 'Early RA' conditions) | overall M/L cone densities at day 200 (human retinal organoids; across experimental conditions (No RA, Early RA, Late RA)) | M-opsin expression (previously published RNA-seq data) (human retinal organoids; iPSC-derived organoids grown in 'Early RA' conditions) | organoid differentiation / M or L cone yield (human retinal organoids; supplemental RA throughout development (N=6)) | L/M cones, share of cones (Thrβ mutant organoids) [%] | S cones, share of cones (Thrβ mutant organoids) [%] | cone density ([1]; early T3 addition in organoids) | L/M cones (L/M-opsin expressing), share of cones [1, 5] [%] | S cones (S-opsin expressing), share of cones [1, 5] [%] | L/M-opsin expression [2]
CC1=C(/C=C/C(C)=C/C=C/C(C)=C/C(=O)O)C(C)(C)CCC1 [RA, all-trans retinoic acid] | 1.65 | 98.35 | 0 | 92.56 | 6.35 | 1.10 | high M-opsin and minimal L-opsin expression | no significant differences | near exclusive expression of M-opsin | failed to differentiate, yielding minimal M or L cones | – | – | – | – | – | –
N[C@@H](Cc1cc(I)c(Oc2ccc(O)c(I)c2)c(I)c1)C(=O)O [T3, triiodothyronine] | – | – | – | – | – | – | – | – | – | – | 0 | 100 | dramatically increased cone density | 96 | 4 | expresses L/M-opsin
